The record followed here is patent US12065438B2, “Substituted tricyclic compounds as indoleamine 2,3-dioxygenase inhibitors” (Merck Sharp & Dohme LLC, priority 2019, dated 2024).

Each structure is given as a SMILES string. pIC50: −log10 of the molar value.

The target in the test is IDO1 (Homo sapiens, UniProt P14902). Put plainly: IDO1 Cellular Assay in HeLa Cells Stimulated with IFNγ. Particulars: HeLa cells stimulated with IFNγ 100 ng/mL, 300 uM L-tryptophan, about 48 hours, fluorescence readout; read-out: IDO1 HELA Cell Assay, IC50. On the set-up: endogenous in cells; host or cells: HeLa cells stimulated with IFNγ. It is filed as cell-based. On the procedure: Biological Assays IDO1 Cellular Assay in HeLa Cells Stimulated with IFNγ HeLa cells were cultured in complete HeLa culture medium (90% EMEM, 10% heat-inactivated fetal bovine serum) and expanded to about 1×10^9 cells. The cells were then collected and frozen down at 1×10^7 cells/vial in 1 mL frozen medium (90% complete HeLa culture medium, 10% DMSO). Compounds to be tested were serially diluted in ten 3-fold steps in DMSO starting from 10 mM DMSO stocks in Echo low volume plate(s). Compound dilutions or DMSO alone were then dispensed from the dilution plate(s) into Greiner black 384-well assay plate(s) (catalog #781086, 50 nL/well) using an Echo 550 acoustic liquid handler (Labcyte). Frozen HeLa cells were thawed and transferred into HeLa assay medium (99% complete HeLa culture medium, 1% Pen/Strep) with 20 mL medium/vial of cells. The cells were spun down at 250 g in a table top centrifuge for 5 min and suspended in same volume of HeLa assay medium. The cells were then counted and adjusted to a density of 2×10^5 cells/mL in HeLa assay medium. Sterile L-tryptophan were added to the cells with final concentration of 300 uM L-tryptophan. A small aliquot (2 mL/plate) of HeLa cells were set aside and were not treated with IFNγ, to serve as the Max-E control. The rest of HeLa cells were added with sterile IFNγ (Cat #285-IF, R & D systems) with a final concentration of 100 ng/mL. HeLa cells with and without IFNγ were dispensed to the respective wells of 384-well assay plates containing the compounds. The plates were incubated for about 48 hours at a 37° C., 5% CO2 incubator. Afterwards, 12 μL of 0.5 M methyl isonipecotate in dimethyl sulfoxide were added into each well and the plates were sealed and incubated at 37° C. without CO2 overnight. The plates were centrifuged for 1 min at 200×g. The resulting fluorescence was measured in a Spectramax plate reader (Molecular Devices) with a 400 nm excitation filter and a 510 nm emission filter. The fluorescence intensity of each well was corrected for the background observed in wells with non-IFNγ-treated cells and was expressed as a fraction of the intensity observed in wells of IFNγ-treated cells and DMSO only. Potencies were calculated by […] least squares fit to the four parameter logistic IC50 equation.
Chain of IDO1 (P14902 whole entry): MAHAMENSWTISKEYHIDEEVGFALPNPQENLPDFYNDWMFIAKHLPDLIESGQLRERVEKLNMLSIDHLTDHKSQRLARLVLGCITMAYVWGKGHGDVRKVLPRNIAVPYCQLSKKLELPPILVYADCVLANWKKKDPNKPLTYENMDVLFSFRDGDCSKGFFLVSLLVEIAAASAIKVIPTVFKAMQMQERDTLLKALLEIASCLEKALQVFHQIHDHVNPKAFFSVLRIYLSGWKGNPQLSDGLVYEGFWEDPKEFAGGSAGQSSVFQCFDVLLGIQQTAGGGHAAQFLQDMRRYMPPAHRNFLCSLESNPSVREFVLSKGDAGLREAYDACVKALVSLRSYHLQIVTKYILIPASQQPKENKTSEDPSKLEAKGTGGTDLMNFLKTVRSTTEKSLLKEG
What is called pIC50 is the negative decadic logarithm of the IC50, by convention in mol/L. For `Cc1nccc(N2C[C@@H]3C[C@@H]3c3nc([C@]4(NC(=O)c5ccc(F)cc5)C[C@H]4C)ccc32)n1` [Example 39, 4-fluoro-N-((1S,2R)-2-methyl-1-((6aR,7aS)-5-(2-methyl-pyrimidin-4-yl)-6,6a,7,7a-tetra-hydro-5H-cyclopropa[c][1,5]-naphthyridin-2-yl)cyclopropyl)-benzamide], the negative logarithm of the IC50 (pIC50) is 7.98.
In the case of `Cc1nccc(N2C[C@@H]3C[C@@H]3c3nc([C@@]4(NC(=O)c5ccc(F)cc5)C[C@H]4C)ccc32)n1` [Example 41, 4-fluoro-N-((1R,2R)-2-methyl-1-((6aR,7aS)-5-(2-methyl-pyrimidin-4-yl)-6,6a,7,7a-tetra-hydro-5H-cyclopropa[c][1,5]-naphthyridin-2-yl)cyclopropyl)-benzamide] it was 8.63; in that of `O=C(NC1(c2ccc3c(n2)[C@@H]2C[C@@H]2CN3C(=O)OC2CCOCC2)CC1)c1ccc(F)cc1` [Example 23, tetrahydro-2H-pyran-4-yl (6aS,7aR)-2-(1-(4-fluoro-benzamido)cyclopropyl)-6,6a,7,7a-tetrahydro-5H-cyclopropa[c][1,5]-naphthyridine-5-carboxylate], 7.77; in that of `Cc1nccc(N2C[C@H]3C[C@H]3c3nc([C@]4(NC(=O)c5ccc(F)cc5)C[C@H]4C)ccc32)n1` [Example 44, 4-fluoro-N-((1S,2R)-2-methyl-1-((6aS,7aR)-5-(2-methyl-pyrimidin-4-yl)-6,6a,7,7a-tetra-hydro-5H-cyclopropa[c][1,5]-naphthyridin-2-yl)cyclopropyl)-benzamide], 8.36.
With `CC(C)(NC(=O)c1ccc(F)cc1)c1ccc2c(n1)[C@H]1C[C@H]1CN2C(=O)OC1CC1` (single isomer, unassigned) [Example 34], the negative logarithm of the IC50 (pIC50) was 6.66.
As for `Cc1nccc(N2C[C@@H]3C[C@@H]3c3nc([C@@]4(NC(=O)c5ccc(F)cc5)C[C@@H]4C)ccc32)n1` [Example 40, 4-fluoro-N-((1R,2S)-2-methyl-1-((6aR,7aS)-5-(2-methyl-pyrimidin-4-yl)-6,6a,7,7a-tetra-hydro-5H-cyclopropa[c][1,5]-naphthyridin-2-yl)cyclopropyl)-benzamide], the pIC50 was 8.55.
Consider `O=C(C1CC1)N1CC2CC2c2cc(C3(C(=O)Nc4ccc(F)cc4)CCC3)ccc21` (single isomer, unassigned) [Example 3, 1-(3-(cyclopropanecarbonyl)-1a,2,3,7b-tetrahydro-1H-cyclopropa[c]quinolin-6-yl)-N-(4-fluorophenyl)cyclobutanecarboxamide], for which the negative logarithm of the IC50 (pIC50) is 7.36.
Take `Cc1nccc(N2C[C@H]3C[C@H]3c3nc([C@]4(NC(=O)c5ccc(F)cc5)C[C@@H]4C)ccc32)n1` [Example 46, 4-fluoro-N-((1S,2S)-2-methyl-1-((6aS,7aR)-5-(2-methyl-pyrimidin-4-yl)-6,6a,7,7a-tetra-hydro-5H-cyclopropa[c][1,5]-naphthyridin-2-yl)cyclopropyl)-benzamide]: the pIC50 is 7.61.
In the case of `CCC(NC(=O)c1ccc(F)cc1)c1ccc2c(n1)C1CC1CN2C(=O)OC1CC1` (single isomer, unassigned) [Example 36, cyclopropyl 2-(1-(4-fluorobenzamido)propyl)-6,6a,7,7a-tetrahydro-5H-cyclopropa[c][1,5]naphthyridine-5-carboxylate], the negative logarithm of the IC50 (pIC50) was 6.68.
For `C[C@H](NC(=O)c1ccc(F)cc1)c1ccc2c(n1)[C@@H]1C[C@@H]1CN2C(=O)OC1CC1` [Example 26, cyclopropyl (6aS,7aR)-2-((S)-1-(4-fluorobenzamido)-ethyl)-6,6a,7,7a-tetrahydro-5H-cyclopropa[c][1,5]-naphthyridine-5-carboxylate], the pIC50 was 7.46.
For `Cc1nccc(N2CC3CC3c3nc(C(C)(C)NC(=O)c4ccc(F)cc4)ccc32)n1` (racemic) [Example 29, 4-fluoro-N-(2-(5-(2-methylpyrimidin-4-yl)-6,6a,7,7a-tetrahydro-5H-cyclopropa[c][1,5]naphthyridin-2-yl)propan-2-yl)benzamide] the value was 7.05; for `CCC(NC(=O)c1ccc(F)cc1)c1ccc2c(n1)C1CC1CN2c1ccnc(C)n1` (racemic) [Example 38, 4-fluoro-N-(1-(5-(2-methyl-pyrimidin-4-yl)-6,6a,7,7a-tetrahydro-5H-cyclopropa[c]-[1,5]naphthyridin-2-yl)propyl)-benzamide], 8.17.
In the case of `Cc1nccc(N2CC3CC3c3nc(C4(NC(=O)c5ccc(F)cc5)CC4C)ccc32)n1` (racemic) [Example 47, 4-fluoro-N-(2-methyl-1-(5-(2-methylpyrimidin-4-yl)-6,6a, 7,7a-tetrahydro-5H-cyclopropa[c][1, 5]naphthyridin-2-yl)cyclopropyl)benzamide] it was 7.28; in that of `Cc1nccc(N2CC3CC3c3cc(C4(NC(=O)c5ccc(F)cc5)CC4)ccc32)n1` [Example 1, 4-fluoro-N-(1-((1aR,7bS)-3-(2-methylpyrimidin-4-yl)-1a,2,3,7b-tetrahydro-1H-cyclopropa[c]quinolin-6-yl)cyclopropyl)benzamide], 8.78.
